The values below come from US8604048B2, “Pyridocarbazole type compounds and applications thereof” (Centre National de la Recherche Scientifique, priority 2009, dated 2013).

Each structure is given as a SMILES string.

Common to all, as to format: cell-based, Human
For data set [1], the system named is microtubules of HeLa cells. The data set can be described thus: Resistance of microtubules to nocodazole-induced depolymerization. Particulars: 2 h with compound then 30 minutes nocodazole. How it is done: 6. a step of analysis of the effect of the compound to be tested on the dynamics of the microtubule network. For this, HeLa cells are incubated for 2 h with the compound to be tested, then optionally treated with 10 μM nocodazole for 30 minutes.
FIG. 4 represents the effect of nocodazole on the microtubules of the HeLa cells treated with the Compound 1 of the invention. The HeLa cells are incubated with paclitaxel or without, with the Compound 1 of the invention for 2 h, then exposed for 30 minutes to nocodazole. The amount of tubulin in the cells treated with the Compound 1 of the invention is measured with a microplate reader, then reported as a percentage of the amount of tubulin measured in the wells containing the cells treated with paclitaxel;
In the living cell, microtubules are dynamic structures, which oscillate between assembling and disassembling phases. Various types of tests may be carried out in order to assess the stabilizing effect of the molecules on the microtubule network. Thus, the binding of paclitaxel to the microtubules, or the binding of stabilizing proteins such as STOP proteins (Bosc et al., 2003) may protect the microtubule network from a depolymerization induced by an incubation of the cells at 4° C. […]

In data set [2] the test system is mitochondria of HeLa cells. The experiment in a line: Effect on location and morphology of the mitochondria (MitoTracker staining). Conditions: 2 h of treatment at 25 μM. As for the experimental part:
As for tubulin staining, the cells are grown on glass coverslips and incubated at 37° C. with 5% CO2. Three days after seeding, MitoTracker® Red CMXRos (Molecular Probes, Invitrogen) is added to the culture medium in order to reach a final concentration of 250 nM. The cells are then incubated for 30 minutes at 37° C. with 5% CO2. This marker passively diffuses through the plasma membrane and accumulates into the active mitochondria. After elimination of the medium, the cells are washed with warm medium then fixed by addition of a solution of PBS/3.7% formaldehyde for 30 minutes at 37° C. The cells are rinsed with PBS, then can be permeabilized with a solution of PBS/0.2% Triton X100 for 15 minutes at room temperature if other immunofluorescence staining are needed.

For data set [3], the system named is Glu-tubulin signal in HeLa cells. The experiment in a line: Glu-tubulin dose-effect, immunofluorescence in microplates. Particulars: 2 h, highest concentrations. How it is done:
HeLa cells are seeded in black-bottomed black 96-well microplates (Greiner 655086) by distributing 90 μl per well of a cell solution containing 40 000 cells/ml, and incubated at 37° C. with 5% CO2. 24 h later, the cells are incubated with the molecules to be tested for 2 h at 37° C. with 5% CO2. The cells are then permeabilized with warm OPT buffer for 6 minutes at 37° C. then fixed in methanol for 10 minutes at room temperature. The cells are rinsed twice with PBS/0.1% Tween® 20 and incubated with the primary antibodies YL1/2 and L4 (cf. the antibodies from Table III) diluted to 1/4000 in a solution of PBS/0.3% BSA/0.02% NaN3 overnight at 37° C. […] The various fluorescence intensities are measured using the FLUOstar OPTIMA reader. […]
A dose-effect curve measuring the variation of the amount of Glu-tubulin was produced for Compound 1 of the invention. […] The fluorescence intensity was then measured using the microplate reader.
The percentage of the signal measured represents its distance relative to the control of bioactivity (paclitaxel (Taxol®)) and to the control of bioinactivity (DMSO). The EC50 was determined using KaleidaGraph® 3.60 software.

For the compound `Cc1c2cc[nH]c(=O)c2c(C)c2c1[nH]c1ccc(OC(=O)c3ccccc3)cc12` [Compound 1, 9-benzoyloxy-5,11-dimethyl-2H,6H-pyrido[4,3-b]carbazol-1-one], the “Protection of microtubules from nocodazole-induced depolymerization” value in data set [1] was “prevents, in a dose-dependent manner”. The “Mitochondrial phenotype of sodium azide type” value in data set [2] is on record as “does not induce the mitochondrial phenotype”. For the same compound, the “Increase in the Glu signal relative to paclitaxel” value in data set [3] is given as “slightly smaller than that of paclitaxel”.
